Values joined by “and” are separate entries in the source; they are usually repeats but may differ in a detail not shown here. Identical values can stand only once.
Columns and labels:
[1] = tested on: HER2 overexpressing cells (SK-BR-3, BT-474, N87); experiment: Drug combinations with PB4188 in vitro (isobolograms); format: cell-based, human; conditions: in the presence of HRG, matrigel or HRG stress concentrations
Description: Moreover, combination with chemotherapeutic drugs and cyclin inhibitors were tested. Combinations were tested on HER2 overexpressing cells growing in the presence of HRG in matrigel (SK-BR-3 and BT-474) or in the presence of HRG stress concentrations (N87 and SK-BR-3 as described in proliferation assays). The inhibitory effect of drug combinations was tested by imaging or by measuring proliferation using Alamar Blue as described herein before. […] The extent of growth inhibition obtained with each combination was calculated. […] The inhibition values of the combination experiments were used by CHALICE™ Analyzer software to generate the isobolograms.

[2] = tested on: intracranial ST1360B PDX tumors; experiment: Intracranial ST1360B PDX tumor model; format: in vivo, mouse
Description: The viability of total cells was greater than 80%. […] The cells were kept on ice until inoculation.
Drugs were diluted in sterile saline before each dosing. […] The dosing volume was 5.0 mL/kg.
The fixative: tissue ratio was at least 20:1.
Image analysis was performed using Horos.

[3] = compared to vehicle treated mice

Cc1nc(NC(=O)N2CCC[C@H]2C(N)=O)sc1-c1ccnc(C(C)(C)C(F)(F)F)c1 [BYL719]
drug combination with PB4188 (isobologram analysis) [1]: synergistic

NC1(c2ccc(-c3nc4ccn5c(=O)[nH]nc5c4cc3-c3ccccc3)cc2)CCC1 [MK-2206]
drug combination with PB4188 (isobologram analysis) [1]: synergistic

CO[C@H]1C[C@@H]2CC[C@@H](C)[C@@](O)(O2)C(=O)C(=O)N2CCCC[C@H]2C(=O)O[C@H]([C@H](C)C[C@@H]2CC[C@@H](OCCO)[C@H](OC)C2)CC(=O)[C@H](C)/C=C(\C)[C@@H](O)[C@@H](OC)C(=O)[C@H](C)C[C@H](C)/C=C/C=C/C=C/1C [everolimus]
drug combination with PB4188 (isobologram analysis) [1]: synergistic

CS(=O)(=O)CCNCc1ccc(-c2ccc3ncnc(Nc4ccc(OCc5cccc(F)c5)c(Cl)c4)c3c2)o1 [lapatinib]
drug combination with PB4188 (isobologram analysis) [1]: synergistic

CCOc1cc2ncc(C#N)c(Nc3ccc(OCc4ccccn4)c(Cl)c3)c2cc1NC(=O)/C=C/CN(C)C [neratinib]
drug combination with PB4188 (isobologram analysis) [1]: synergistic

CC(=O)O[C@H]1C(=O)[C@@]2(C)[C@H]([C@H](OC(=O)c3ccccc3)[C@]3(O)C[C@H](OC(=O)[C@H](O)[C@@H](NC(=O)c4ccccc4)c4ccccc4)C(C)=C1C3(C)C)[C@]1(OC(C)=O)CO[C@@H]1C[C@@H]2O [paclitaxel]
drug combination with PB4188 (isobologram analysis) [1]: synergistic

O=C(CCCCCCC(=O)Nc1ccccc1)NO [vorinostat]
drug combination with PB4188 (isobologram analysis) [1]: synergistic

MCLA-128: bispecific antibody MCLA-128 directed against HER2 and HER3
Brain edema score day 3 ([2]; MRI, scale 0-4 (0 no, 4 massive brain edema), individual mice, day 3 post initiation of therapy): 2 (2×) and 0 (2×) and 1 (4×) | Brain edema score day 7 ([2]; MRI, scale 0-4, individual mice, day 7): 2 (4×) and 0 (2×) and 3 and 1 | Brain edema score day 10 ([2]; MRI, scale 0-4, individual mice, day 10): 2 (4×) and 0 (2×) and 3 and 1 | Brain edema score day 14 ([2]; MRI, scale 0-4, individual mice, day 14): 1 (4×) and 0 and 3 (3×) | Brain edema score day 21 ([2]; MRI, scale 0-4, individual mice, day 21): 2 (2×) and 1 (3×) and 3 (3×) | Brain edema score day 28 ([2]; MRI, scale 0-4, individual mice, day 28): 3 (4×) and 4 | Brain edema score day 35 ([2]; MRI, scale 0-4, individual mice, day 35): 3 | Brain edema score day 42 ([2]; MRI, scale 0-4, individual mice, day 42): 3 | Brain edema final score ([2]; MRI, scale 0-4, individual mice, last MR scan): 3 (4×) and 1 (3×) and 4 | tumor growth by T2-weighted MRI [2, 3]: tumor growth delay | median survival ([2]; post therapy initiation, T-DM1 10 mg/kg qwk, MCLA-128 25 mg/kg twice wk, i.v., vehicle 13 days): 29 days

trastuzumab-emtansine [T-DM1, reference compound]
tumor growth by T2-weighted MRI [2, 3]: Tumor growth was inhibited | mean tumor volume 10 days post therapy ([2]; compared to vehicle treated mice, p<0.05): significantly smaller
